Values of other authors in patent publication US20120309847A1, “DOSING REGIMENS AND METHODS FOR TREATING OR PREVENTING PROMYELOCYTIC LEUKEMIA” (NBI Pharmaceuticals, Inc., priority 2011, published 2012).

Columns and labels:
APL [1] = conditions: ATRA combined with anthracycline based chemotherapy; cited from earlier work
APL [2] = conditions: enocitabine 100-200 mg/m^2 continuous infusion 7 days combined with daunorubicin i.v. 3 days; cited from earlier work

SMILES: CC1=C(/C=C/C(C)=C/C=C/C(C)=C/C(=O)O)C(C)(C)CCC1 [ATRA, all-trans retinoic acid]
- clinical remission, share of patients (APL [1]): approximately 90%

SMILES: CCCCCCCCCCCCCCCCCCCCCC(=O)Nc1ccn([C@@H]2O[C@H](CO)[C@@H](O)[C@@H]2O)c(=O)n1 [enocitabine]
- long-term disease-free survival (APL [2]): ~30%
